Our source for the IC50 values is US20070037837A1, “Quinazoline derivatives” (priority 2003, published 2007).

For one test, the target named is T1, erbB2 (Homo sapiens, UniProt P04626).
T1 construct: to give a cell line that overexpresses full length wild type erbB2 protein; expressed in transfected cells; host or cells: MCF7 (breast carcinoma) derived 'Clone 24' cells
The test can be described thus: Clone 24 phospho-erbB2 cell assay, Test (e). The settings on record: MCF7 derived Clone 24 cells, 4 hrs; read-out: IC50 Test (e): Inhibition of erbB2 tyrosine kinase protein phosphorylation. It is filed as cell-based. The method, then: This immunofluorescence end point assay measures the ability of a test compound to inhibit the phosphorylation of erbB2 in a MCF7 (breast carcinoma) derived cell line which was generated by transfecting MCF7 cells with the full length erbB2 gene using standard methods to give a cell line that overexpresses full length wild type erbB2 protein (hereinafter ‘Clone 24’ cells).
Clone 24 cells were cultured in Growth Medium (phenol red free Dulbecco's modified Eagle's medium (DMEM) containing 10% foetal bovine serum, 2 mM glutamine and 1.2 mg/ml G418) in a 7.5% CO2 air incubator at 37° C. Cells were harvested from T75 stock flasks by washing once in PBS (phosphate buffered saline, pH 7.4, Gibco No. 10010-015) and harvested using 2 mls of Trypsin (1.25 mg/ml)/ethylaminediaminetetraacetic acid (EDTA) (0.8 mg/ml) solution. The cells were resuspended in Growth Medium. Cell density was measured using a haemocytometer and viability was calculated using Trypan Blue solution before being further diluted in Growth Medium and seeded at a density of 1×10^4 cells per well (in 100 ul) into clear bottomed 96 well plates (Packard, No. 6005182).
3 days later, Growth Medium was removed from the wells and replaced with 100 ul Assay Medium (phenol red free DMEM, 2 mM glutamine, 1.2 mg/ml G418) either with or without erbB inhibitor compound. Plates were returned to the incubator for 4 hrs and then 20 μl of 20% formaldehyde solution in PBS was added to each well and the plate was left at room temperature for 30 minutes. This fixative solution was removed with a multichannel pipette, 100 μl of PBS was added to each well and then removed with a multichannel pipette and then 50 μl PBS was added to each well. Plates were then sealed and stored for up to 2 weeks at 4° C.
Immunostaining was performed at room temperature. Wells were washed once with 200 μl PBS/Tween 20 (made by adding 1 sachet of PBS/Tween dry powder (Sigma, No. P3563) to 1 L of double distilled H2O) using a plate washer then 200 μl Blocking Solution (5% Marvel dried skimmed milk (Nestle) in PBS/Tween 20) was added and incubated for 10 minutes. Blocking Solution was removed using a plate washer and 200 μl of 0.5% Triton X-100/PBS was added to permeabalise the cells. After 10 minutes, the plate was washed with 200 μl PBS/Tween 20 and then 200 μl Blocking Solution was added once again and incubated for 15 minutes. […]
The Fluorescence signal is each well was measured using an Acumen Explorer Instrument (Acumen Bioscience Ltd.), a plate reader that can be used to rapidly quantitate features of images generated by laser-scanning. […]

The test system of another test is KB cells. The test can be described thus: EGFR driven KB cell proliferation assay, Test (b). The settings on record: Homo sapiens, 96 h, EGF 1 ng/ml, 4 days, MTT. It is filed as cell-based. The protocol: This assay measures the ability of a test compound to inhibit the proliferation of KB cells (human naso-pharangeal carcinoma obtained from the American Type Culture Collection (ATCC).
KB cells (human naso-pharangeal carcinoma obtained from the ATCC were cultured in Dulbecco's modified Eagle's medium (DMEM) containing 10% foetal calf serum, 2 mM glutamine and non-essential amino acids at 37° C. in a 7.5% CO2 air incubator. Cells were harvested from the stock flasks using Trypsin/ethylaminediaminetetraacetic acid (EDTA). Cell density was measured using a haemocytometer and viability was calculated using trypan blue solution before being seeded at a density of 1.25×10^3 cells per well of a 96 well plate in DMEM containing 2.5% charcoal stripped serum, 1 mM glutamine and non-essential amino acids at 37° C. in 7.5% CO2 and allowed to settle for 4 hours.
Following adhesion to the plate, the cells are treated with or without EGF (final concentration of 1 ng/ml) and with or without compound at a range of concentrations in dimethylsulfoxide (DMSO) (0.1% final) before incubation for 4 days. Following the incubation period, cell numbers were determined by addition of 50 μl of 3-(4,5-Dimethylthiazol-2-yl)-2,5-diphenyltetrazolium bromide (MTT) (stock 5 mg/ml) for 2 hours. MTT solution was then tipped off, the plate gently tapped dry and the cells dissolved upon the addition of 100 μl of DMSO.
Absorbance of the solubilised cells was read at 540 nm using a Molecular Devices ThermoMax microplate reader. Inhibition of proliferation was expressed as an IC50 value. This was determined by calculation of the concentration of compound that was required to give 50% inhibition of proliferation. The range of proliferation was calculated from the positive (vehicle plus EGF) and negative (vehicle minus EGF) control values.

For another test, the target named is T2, erbB2 tyrosine kinase (Homo sapiens, UniProt P04626).
T2 construct: Recombinant intracellular fragments of EGFR, erbB2 and erbB4; made in house; host or cells: baculovirus/Sf21 insect cells (cleared lysate used)
Put plainly: Protein tyrosine kinase phosphorylation assay, Test (a), erbB2. It is filed as biochemical. The settings on record: recombinant intracellular fragment, ATP at Km; read-out: IC50 Test (a): Inhibition of erbB2 tyrosine kinase protein phosphorylation. The method, then:
(§1) This test measures the ability of a test compound to inhibit the phosphorylation of a tyrosine containing polypeptide substrate by EGFR and erbB2 tyrosine kinase enzyme.
(§2) Recombinant intracellular fragments of EGFR, erbB2 and erbB4 (accession numbers X00588, X03363 and L07868 respectively) were cloned and expressed in the baculovirus/Sf21 system. Lysates were prepared from these cells by treatment with ice-cold lysis buffer (20 mM N-2-hydroxyethylpiperizine-N′-2-ethanesulfonic acid (HEPES) pH 7.5, 150 mM NaCl, 10% glycerol, 1% Triton X-100, 1.5 mM MgCl2, 1 mM ethylene glycol-bis(β-aminoethyl ether) N′,N′,N′,N′-tetraacetic acid (EGTA), plus protease inhibitors and then cleared by centrifugation.
Constitutive kinase activity of the recombinant protein was determined by its ability to phosphorylate a synthetic peptide (made up of a random co-polymer of Glutamic Acid, Alanine and Tyrosine in the ratio of 6:3:1). Specifically, Maxisorb™ 96-well immunoplates were coated with synthetic peptide (0.2 μg of peptide in a 100 μl phosphate buffered saline (PBS) solution and incubated at 4° C. overnight). Plates were washed in PBS-T (phosphate buffered saline with 0.5% Tween 20) then in 50 mM HEPES pH 7.4 at room temperature to remove any excess unbound synthetic peptide. EGFR, ErbB2 or ErbB4 tyrosine kinase activity was assessed by incubation in peptide coated plates for 20 minutes at 22° C. in 100 mM HEPES pH 7.4, adenosine trisphosphate (ATP) at Km concentration for the respective enzyme, 10 mM MnCl2, 0.1 mM Na3VO4, 0.2 mM DL-dithiothreitol (DTT), 0.1% Triton X-100 with test compound in DMSO (final concentration of 2.5%). Reactions were terminated by the removal of the liquid components of the assay followed by washing of the plates with PBS-T.
The immobilised phospho-peptide product of the reaction was detected by immunological methods. Firstly, plates were incubated for 90 minutes at room temperature with anti-phosphotyrosine primary antibodies that were raised in the mouse (4G10 from Upstate Biotechnology). Following extensive washing, plates were treated with Horseradish Peroxidase (HRP) conjugated sheep anti-mouse secondary antibody (NXA931 from Amersham) for 60 minutes at room temperature. After further washing, HRP activity in each well of the plate was measured colorimetrically using 22′-Azino-di-[3-ethylbenzthiazoline sulfonate (6)] diammonium salt crystals (ABTS™ from Roche) as a substrate.
(§3) Quantification of colour development and thus enzyme activity was achieved by the measurement of absorbance at 405 nm on a Molecular Devices ThermoMax microplate reader. Kinase inhibition for a given compound was expressed as an IC50 value. […] The range of phosphorylation was calculated from the positive (vehicle plus ATP) and negative (vehicle minus ATP) control values.

A further test concerns the target T3, EGFR tyrosine kinase (Homo sapiens, UniProt P00533).
T3 construct: Recombinant intracellular fragments of EGFR, erbB2 and erbB4; made in house; host or cells: baculovirus/Sf21 insect cells (cleared lysate used)
Put plainly: Protein tyrosine kinase phosphorylation assay, Test (a), EGFR. It is filed as biochemical. The settings on record: recombinant intracellular fragment, ATP at Km; read-out: IC50 Test (a): Inhibition of EGFR tyrosine kinase protein phosphorylation. The method, then: as §1, §2
Constitutive kinase activity of the recombinant protein was determined by its ability to phosphorylate a synthetic peptide (made up of a random co-polymer of Glutamic Acid, Alanine and Tyrosine in the ratio of 6:3:1). Specifically, Maxisorb™ 96-well immunoplates were coated with synthetic peptide (0.2 μg of peptide in a 100 μl phosphate buffered saline (PBS) solution and incubated at 4° C. overnight). Plates were washed in PBS-T (phosphate buffered saline with 0.5% Tween 20) then in 50 mM HEPES pH 7.4 at room temperature to remove any excess unbound synthetic peptide. […]
The immobilised phospho-peptide product of the reaction was detected by immunological methods. […] After further washing, HRP activity in each well of the plate was measured colorimetrically using 22′-Azino-di-[3-ethylbenzthiazoline sulfonate (6)] diammonium salt crystals (ABTS™ from Roche) as a substrate.
as §3

In general, IC50 refers to the concentration that inhibits the measured activity by half.

Each structure is given as a SMILES string.

T1 sequence (P04626 23-1255): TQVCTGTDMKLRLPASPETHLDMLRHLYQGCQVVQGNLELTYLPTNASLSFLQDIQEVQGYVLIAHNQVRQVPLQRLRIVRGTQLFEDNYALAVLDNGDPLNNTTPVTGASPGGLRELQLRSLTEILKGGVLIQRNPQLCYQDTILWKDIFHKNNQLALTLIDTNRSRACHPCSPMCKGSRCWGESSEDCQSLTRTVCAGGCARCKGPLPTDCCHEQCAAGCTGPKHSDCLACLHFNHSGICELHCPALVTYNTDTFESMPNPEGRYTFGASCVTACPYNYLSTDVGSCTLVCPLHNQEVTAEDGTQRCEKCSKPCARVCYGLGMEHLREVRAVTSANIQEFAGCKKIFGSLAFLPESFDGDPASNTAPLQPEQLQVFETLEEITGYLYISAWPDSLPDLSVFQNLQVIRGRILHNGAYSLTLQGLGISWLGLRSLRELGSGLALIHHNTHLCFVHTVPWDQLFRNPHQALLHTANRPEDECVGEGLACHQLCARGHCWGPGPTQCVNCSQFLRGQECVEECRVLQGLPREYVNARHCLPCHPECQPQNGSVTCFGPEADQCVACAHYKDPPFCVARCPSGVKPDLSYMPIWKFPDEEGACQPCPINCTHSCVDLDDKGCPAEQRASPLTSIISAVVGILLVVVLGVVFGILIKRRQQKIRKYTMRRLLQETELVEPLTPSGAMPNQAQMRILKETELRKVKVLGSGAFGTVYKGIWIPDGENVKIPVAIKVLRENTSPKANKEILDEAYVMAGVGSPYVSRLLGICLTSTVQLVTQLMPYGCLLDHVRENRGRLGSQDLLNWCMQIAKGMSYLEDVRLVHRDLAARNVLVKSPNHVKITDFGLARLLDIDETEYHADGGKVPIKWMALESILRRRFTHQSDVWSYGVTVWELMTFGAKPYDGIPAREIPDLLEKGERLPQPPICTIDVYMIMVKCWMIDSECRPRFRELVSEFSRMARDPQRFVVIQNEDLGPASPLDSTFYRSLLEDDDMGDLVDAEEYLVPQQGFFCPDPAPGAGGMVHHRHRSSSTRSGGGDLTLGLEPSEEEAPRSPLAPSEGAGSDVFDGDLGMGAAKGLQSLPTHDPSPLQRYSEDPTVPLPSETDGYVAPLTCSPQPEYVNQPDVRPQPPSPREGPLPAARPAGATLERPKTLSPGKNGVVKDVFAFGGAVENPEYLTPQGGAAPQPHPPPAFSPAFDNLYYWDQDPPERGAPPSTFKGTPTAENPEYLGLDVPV
T3 sequence (P00533 669-1210 limits assumed): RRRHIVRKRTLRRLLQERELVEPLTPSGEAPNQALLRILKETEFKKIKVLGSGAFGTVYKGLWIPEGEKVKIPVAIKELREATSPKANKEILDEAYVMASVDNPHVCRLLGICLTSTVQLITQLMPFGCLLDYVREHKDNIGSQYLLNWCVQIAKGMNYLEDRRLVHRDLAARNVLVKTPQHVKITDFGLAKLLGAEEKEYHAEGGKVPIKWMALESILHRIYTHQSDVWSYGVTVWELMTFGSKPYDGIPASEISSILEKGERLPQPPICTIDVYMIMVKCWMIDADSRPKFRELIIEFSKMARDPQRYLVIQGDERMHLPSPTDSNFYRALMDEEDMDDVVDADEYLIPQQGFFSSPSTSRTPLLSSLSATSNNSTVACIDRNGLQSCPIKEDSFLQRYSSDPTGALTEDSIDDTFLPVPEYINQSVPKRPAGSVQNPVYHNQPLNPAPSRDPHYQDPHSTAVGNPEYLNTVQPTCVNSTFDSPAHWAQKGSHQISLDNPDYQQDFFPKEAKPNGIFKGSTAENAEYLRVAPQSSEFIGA
T2 sequence (P04626 676-1255 limits assumed): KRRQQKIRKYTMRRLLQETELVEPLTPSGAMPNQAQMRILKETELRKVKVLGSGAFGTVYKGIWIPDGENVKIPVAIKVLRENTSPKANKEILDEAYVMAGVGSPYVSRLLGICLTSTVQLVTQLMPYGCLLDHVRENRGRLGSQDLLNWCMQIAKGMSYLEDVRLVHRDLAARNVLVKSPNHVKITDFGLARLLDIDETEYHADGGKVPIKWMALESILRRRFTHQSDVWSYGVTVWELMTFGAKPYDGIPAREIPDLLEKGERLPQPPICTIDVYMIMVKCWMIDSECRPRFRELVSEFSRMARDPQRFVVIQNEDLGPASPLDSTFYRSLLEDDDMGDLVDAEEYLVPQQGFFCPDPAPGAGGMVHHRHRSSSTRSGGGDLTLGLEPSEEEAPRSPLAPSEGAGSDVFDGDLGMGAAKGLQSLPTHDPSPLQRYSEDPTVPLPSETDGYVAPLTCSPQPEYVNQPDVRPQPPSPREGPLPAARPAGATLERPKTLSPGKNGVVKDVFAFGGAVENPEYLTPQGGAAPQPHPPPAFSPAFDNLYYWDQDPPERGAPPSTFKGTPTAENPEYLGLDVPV

For the compound `COc1cc2ncnc(Nc3cccc(Cl)c3F)c2cc1OC1CCN(C(=O)OCCN2CCCCC2)CC1` [Example 6, 4-(3-Chloro-2-fluoroanilino)-7-methoxy-6-{[1-{2-(piperidin-1-yl)ethoxycarbonyl}piperidin-4-yl]oxy}quinazoline], the IC50 at erbB2 was found to be 0.041 µM; in the test on KB cells it was 0.01 µM; on erbB2 tyrosine kinase, 0.002 µM.
`COc1cc2ncnc(Nc3ccc(F)c(Cl)c3F)c2cc1OC1CCN(C(=O)OCCN2CCCC2)CC1` [Example 4, 4-(3-Chloro-2,4-difluoroanilino)-7-methoxy-6-{[1-{2-(pyrrolidin-1-yl)ethoxycarbonyl}piperidin-4-yl]oxy}quinazoline]: the IC50 at erbB2 is 0.029 µM; in the test on KB cells, 0.015 µM; at erbB2 tyrosine kinase, 0.002 µM; at EGFR tyrosine kinase it was 0.002 µM.
As to `COC(=O)N1CCC(Oc2cc3c(Nc4cccc(Cl)c4F)ncnc3cc2OC)CC1` [Example 1, 4-(3-Chloro-2-fluoroanilino)-7-methoxy-6-{[1-(methoxycarbonyl)piperidin-4-yl]oxy}quinazoline], the IC50 on erbB2 amounted to 0.009 µM; with KB cells, 0.035 µM; on erbB2 tyrosine kinase it was 0.038 µM; at EGFR tyrosine kinase, 0.001 µM.
As to `COc1cc2ncnc(Nc3cccc(Cl)c3F)c2cc1OC1CCN(C(=O)OCCN2CCCC2)CC1` [Example 2, 4-(3-Chloro-2-fluoroanilino)-7-methoxy-6-{[1-{2-(pyrrolidin-1-yl)ethoxycarbonyl}piperidin-4-yl]oxy}quinazoline], the IC50 at erbB2 amounted to 0.036 µM; in the test on KB cells, 0.009 µM; at erbB2 tyrosine kinase it was 0.01 µM; on EGFR tyrosine kinase, 0.004 µM.
